Experimental data from patent US8435980B2 (AbbVie Inc., priority 2009, dated 2013).

Target: T1, Cdc7 (BEV coexpressed huCDC7/DBF4) (Homo sapiens, UniProt O00311)
T1 construct: made in house; host or cells: BEV (baculovirus expression vector) co-expression; insect cells are implied but no cell line is named
Assay: Cdc7 enzyme inhibition assay ([33P]ATP, biotinylated peptide substrate, FlashPlate)
Assay type: biochemical
Details: Table 3; enzyme inhibition data (Ki)
Experimental: Cdc7 (BEV coexpressed huCDC7/DBF4) is prepared internally. Cdc7 assays are conducted as follows with final concentrations as listed. […] Reactions are quenched after 1 hr by the addition of 90 μL stop buffer (50 mM EDTA, 2M NaCl). […] (Ki) for exemplary compounds.

T1 sequence (O00311 whole entry): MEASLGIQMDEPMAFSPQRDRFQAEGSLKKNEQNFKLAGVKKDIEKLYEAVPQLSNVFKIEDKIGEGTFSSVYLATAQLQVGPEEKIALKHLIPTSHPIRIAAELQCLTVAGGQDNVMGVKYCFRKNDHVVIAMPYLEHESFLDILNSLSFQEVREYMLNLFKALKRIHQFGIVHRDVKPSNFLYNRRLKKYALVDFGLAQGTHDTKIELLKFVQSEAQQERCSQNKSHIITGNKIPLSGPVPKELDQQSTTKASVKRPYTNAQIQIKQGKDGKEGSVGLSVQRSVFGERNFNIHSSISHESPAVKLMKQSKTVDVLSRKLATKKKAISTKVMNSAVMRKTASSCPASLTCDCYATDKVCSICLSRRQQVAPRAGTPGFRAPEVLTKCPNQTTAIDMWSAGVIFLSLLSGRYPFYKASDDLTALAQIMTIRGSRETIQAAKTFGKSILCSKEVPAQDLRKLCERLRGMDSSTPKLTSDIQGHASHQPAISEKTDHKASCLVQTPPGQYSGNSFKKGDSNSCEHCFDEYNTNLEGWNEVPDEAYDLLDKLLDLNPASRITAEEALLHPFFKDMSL
T1 sequence (Q9UBU7 whole entry partner): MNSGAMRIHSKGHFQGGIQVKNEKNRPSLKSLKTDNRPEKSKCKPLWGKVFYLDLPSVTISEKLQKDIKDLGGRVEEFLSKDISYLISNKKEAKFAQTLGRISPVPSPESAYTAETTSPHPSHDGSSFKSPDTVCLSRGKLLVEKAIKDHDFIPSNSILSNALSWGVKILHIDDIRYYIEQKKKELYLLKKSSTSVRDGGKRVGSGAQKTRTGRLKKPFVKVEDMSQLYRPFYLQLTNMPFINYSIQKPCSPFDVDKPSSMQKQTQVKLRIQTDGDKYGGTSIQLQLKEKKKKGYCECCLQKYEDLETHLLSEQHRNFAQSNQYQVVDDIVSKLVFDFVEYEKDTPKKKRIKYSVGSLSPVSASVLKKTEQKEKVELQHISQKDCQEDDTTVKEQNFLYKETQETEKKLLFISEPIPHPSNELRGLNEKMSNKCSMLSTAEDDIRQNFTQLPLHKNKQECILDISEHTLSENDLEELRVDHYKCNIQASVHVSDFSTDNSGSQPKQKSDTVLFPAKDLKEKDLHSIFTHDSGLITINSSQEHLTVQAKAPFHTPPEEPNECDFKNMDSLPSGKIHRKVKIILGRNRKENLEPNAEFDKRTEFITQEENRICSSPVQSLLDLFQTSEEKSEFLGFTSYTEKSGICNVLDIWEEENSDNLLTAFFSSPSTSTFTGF

Structure (SMILES) | Ki [nM]
O=C(N[C@H]1CC[C@H](Nc2cc(-c3c[nH]c4ncccc34)cc(Cl)n2)CC1)C1CN(C2CCNCC2)C1 [Example 250, N-(trans-4-{[6-chloro-4-(1H-pyrrolo[2,3-b]pyridin-3-yl)pyridin-2-yl]amino}cyclohexyl)-1-(piperidin-4-yl)azetidine-3-carboxamide] | < 10
COc1cnc2[nH]cc(-c3cc(Cl)nc(NC4CCC(C5CCN(C6CCC6)CC5)CC4)c3)c2c1 (stereo not drawn) [Example 252, 6-chloro-N-[4-(1-cyclobutylpiperidin-4-yl)cyclohexyl]-4-(5-methoxy-1H-pyrrolo[2,3-b]pyridin-3-yl)pyridin-2-amine] | < 10
CC(=O)Nc1cccc(-c2cnc3[nH]cc(-c4cc(Cl)nc(NC5CCCCC5)c4)c3c2)c1 [Example 255, N-(3-{3-[2-chloro-6-(cyclohexylamino)pyridin-4-yl]-1H-pyrrolo[2,3-b]pyridin-5-yl}phenyl)acetamide] | < 10
CS(=O)(=O)Nc1cnc2[nH]cc(-c3cc(Cl)nc(NC4CCCCC4)c3)c2c1 [Example 256, N-{3-[2-chloro-6-(cyclohexylamino)pyridin-4-yl]-1H-pyrrolo[2,3-b]pyridin-5-yl}methanesulfonamide] | < 10
COc1cnc2[nH]cc(-c3cc(Cl)nc(NC4CCC(CC5CCC(NC(=O)c6cccnc6)CC5)CC4)c3)c2c1 (stereo not drawn) [Example 257, N-{4-[(4-{[6-chloro-4-(5-methoxy-1H-pyrrolo[2,3-b]pyridin-3-yl)pyridin-2-yl]amino}cyclohexyl)methyl]cyclohexyl}pyridine-3-carboxamide] | < 10
COc1cnc2[nH]cc(-c3cc(Cl)nc(NC4CCC(CC5CCC(N(C)C)CC5)CC4)c3)c2c1 (stereo not drawn) [Example 259, 6-chloro-N-(4-{[4-(dimethylamino)cyclohexyl]methyl}cyclohexyl)-4-(5-methoxy-1H-pyrrolo[2,3-b]pyridin-3-yl)pyridin-2-amine] | < 10
COc1cnc2[nH]cc(-c3cc(Cl)nc(NC4CCCC(NS(=O)(=O)C5CC5)C4)c3)c2c1 (stereo not drawn) [Example 260, N-(3-{[6-chloro-4-(5-methoxy-1H-pyrrolo[2,3-b]pyridin-3-yl)pyridin-2-yl]amino}cyclohexyl)cyclopropanesulfonamide] | < 10
COc1cnc2[nH]cc(-c3cc(Cl)nc(NC4CCCC(NC(C)=O)C4)c3)c2c1 (stereo not drawn) [Example 261, N-(3-{[6-chloro-4-(5-methoxy-1H-pyrrolo[2,3-b]pyridin-3-yl)pyridin-2-yl]amino}cyclohexyl)acetamide] | < 10

The remaining lines, values ahead:

Ki [nM] | Structure (SMILES)
< 10 | COc1cnc2[nH]cc(-c3cc(Cl)nc(N[C@H]4CC[C@H](NC(=O)CNC5CCCCC5)CC4)c3)c2c1 [Example 251, N-(trans-4-{[6-chloro-4-(5-methoxy-1H-pyrrolo[2,3-b]pyridin-3-yl)pyridin-2-yl]amino}cyclohexyl)-N^2-cyclohexylglycinamide]
< 10 | COc1cnc2[nH]cc(-c3cc(Cl)nc(N[C@H]4CC[C@H](NS(=O)(=O)C5CCCCC5)CC4)c3)c2c1 [Example 253, N-(trans-4-{[6-chloro-4-(5-methoxy-1H-pyrrolo[2,3-b]pyridin-3-yl)pyridin-2-yl]amino}cyclohexyl)cyclohexanesulfonamide]
< 10 | COc1cnc2[nH]cc(-c3cc(Cl)nc(N[C@H]4CC[C@H](NC(=O)CN5CCOCC5)CC4)c3)c2c1 [Example 254, N-(trans-4-{[6-chloro-4-(5-methoxy-1H-pyrrolo[2,3-b]pyridin-3-yl)pyridin-2-yl]amino}cyclohexyl)-2-(morpholin-4-yl)acetamide]
< 10 | COc1cnc2[nH]cc(-c3cc(Cl)nc(N[C@H]4CC[C@H](NC(=O)CNCC(C)(C)C)CC4)c3)c2c1 [Example 258, N-(trans-4-{[6-chloro-4-(5-methoxy-1H-pyrrolo[2,3-b]pyridin-3-yl)pyridin-2-yl]amino}cyclohexyl)-N^2-(2,2-dimethylpropyl)glycinamide]
